According to patent US20050100540A1, “Platelet-activating factor acetylhydrolase” (priority 1993, published 2005):

How the values were obtained:
[1] = target: recombinant PAF-AH encoded by clone sAH 406-3 (Homo sapiens, UniProt Q13093); format: biochemical
recombinant PAF-AH = target: T1, recombinant PAF-AH (Homo sapiens, UniProt Q13093); experiment: Inhibition of PAF hydrolysis in standard PAF hydrolysis assay; format: biochemical; conditions: 0 to 125 μM; highest concentration 5-fold greater than PAF
T1 construct: 441 amino acids; At the amino terminus, a relatively hydrophobic segment of 41 residues precedes the N-terminal amino acid (the isoleucine at position 42); made in house; host or cells: E. coli (constructs trp AH / pUC trp AH)
T1 sequence (Q13093 42-441): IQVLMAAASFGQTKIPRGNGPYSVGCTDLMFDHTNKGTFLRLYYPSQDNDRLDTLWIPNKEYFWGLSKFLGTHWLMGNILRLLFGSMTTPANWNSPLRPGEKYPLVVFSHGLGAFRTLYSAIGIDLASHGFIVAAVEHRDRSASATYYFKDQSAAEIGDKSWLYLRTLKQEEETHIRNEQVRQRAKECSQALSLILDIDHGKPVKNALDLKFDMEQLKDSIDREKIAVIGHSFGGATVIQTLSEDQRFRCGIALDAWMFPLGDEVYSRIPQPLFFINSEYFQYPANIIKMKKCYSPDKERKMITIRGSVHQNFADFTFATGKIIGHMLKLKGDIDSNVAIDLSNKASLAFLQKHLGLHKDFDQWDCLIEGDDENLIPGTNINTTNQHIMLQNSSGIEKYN
Procedure: The most remarkable property of the PAF acetylhydrolase is its marked specificity for substrates with a short residue at the sn-2 position of the substrate. This strict specificity distinguishes PAF acetylhydrolase from other forms of PLA2. Thus, to determine if recombinant PAF-AH degrades phospholipids with long-chain fatty acids at the sn-2 position, hydrolysis of 1-palmitoyl-2-arachidonoyl-sn-glycero-3-phosphocholine (arachidonoylPC) was assayed since this is the preferred substrate for a well-characterized form of PLA2. […] In additional experiments, arachidonoylPC was included in a standard PAF hydrolysis assay at concentrations ranging from 0 to 125 μM to determine whether it inhibited the hydrolysis of PAF by recombinant PAF-AH. There was no inhibition of PAF hydrolysis even at the highest concentration of […], which was 5-fold greater than the concentration of PAF. […] Native plasma PAF-AH has several other properties that distinguish it from other phospholipases including calcium-independence and resistance to compounds that modify sulfhydryl groups or disrupt disulfides.

With `O=C(O)CN(CCN(CC(=O)O)CC(=O)O)CC(=O)O` [EDTA, reference compound] the “Effect on PAF-AH activity of media from cells transfected with sAH 406-3” value [1] was “unaffected”.

With `CCCCC/C=C\C/C=C\C/C=C\C/C=C\CCCC(=O)O[C@H](COC(=O)CCCCCCCCCCCCCCC)COP(=O)([O-])OCC[N+](C)(C)C` [arachidonoylPC, 1-palmitoyl-2-arachidonoyl-sn-glycero-3-phosphocholine] the “Inhibition of hydrolysis of PAF by recombinant PAF-AH” value (recombinant PAF-AH) was “no inhibition”.

B1: sAH 406-3: Full length human plasma PAF-AH cDNA clone, product transiently expressed in COS 7 cells (protein)
chain: MVPPKLHVLFCLCGCLAVVYPFDWQYINPVAHMKSSAWVNKIQVLMAAASFGQTKIPRGNGPYSVGCTDLMFDHTNKGTFLRLYYPSQDNDRLDTLWIPNKEYFWGLSKFLGTHWLMGNILRLLFGSMTTPANWNSPLRPGEKYPLVVFSHGLGAFRTLYSAIGIDLASHGFIVAAVEHRDRSASATYYFKDQSAAEIGDKSWLYLRTLKQEEETHIRNEQVRQRAKECSQALSLILDIDHGKPVKNALDLKFDMEQLKDSIDREKIAVIGHSFGGATVIQTLSEDQRFRCGIALDAWMFPLGDEVYSRIPQPLFFINSEYFQYPANIIKMKKCYSPDKERKMITIRGSVHQNFADFTFATGKIIGHMLKLKGDIDSNVAIDLSNKASLAFLQKHLGLHKDFDQWDCLIEGDDENLIPGTNINTTNQHIMLQNSSGIEKYN
With B1 the “PAF-AH activity of transfected COS cell media relative to background” value [1] was 4 fold.
